Measured values: BindingDB's records for doi:10.1016/0024-3205(84)90540-x (Schering-Plough, 1984)
Structures can show the parent of a compound that is named as a salt.

Legend:
[1] = target: D(2) dopamine receptor (Rattus norvegicus, UniProt P61169)
[2] = target: D(1A) dopamine receptor (Rattus norvegicus, UniProt P18901)
Sequence of D(1A) dopamine receptor (P18901 whole entry): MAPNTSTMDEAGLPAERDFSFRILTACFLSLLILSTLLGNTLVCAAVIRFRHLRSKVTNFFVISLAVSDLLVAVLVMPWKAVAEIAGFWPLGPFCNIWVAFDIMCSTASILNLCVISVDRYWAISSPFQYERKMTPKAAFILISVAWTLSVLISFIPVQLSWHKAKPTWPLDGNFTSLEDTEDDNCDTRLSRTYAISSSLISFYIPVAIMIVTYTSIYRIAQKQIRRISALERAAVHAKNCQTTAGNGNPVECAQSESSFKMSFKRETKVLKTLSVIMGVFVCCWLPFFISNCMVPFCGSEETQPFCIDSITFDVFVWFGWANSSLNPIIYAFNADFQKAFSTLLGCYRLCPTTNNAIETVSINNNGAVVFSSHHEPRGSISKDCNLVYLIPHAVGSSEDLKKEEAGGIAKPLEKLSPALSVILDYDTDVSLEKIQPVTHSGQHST

Sequence of D(2) dopamine receptor (P61169 whole entry): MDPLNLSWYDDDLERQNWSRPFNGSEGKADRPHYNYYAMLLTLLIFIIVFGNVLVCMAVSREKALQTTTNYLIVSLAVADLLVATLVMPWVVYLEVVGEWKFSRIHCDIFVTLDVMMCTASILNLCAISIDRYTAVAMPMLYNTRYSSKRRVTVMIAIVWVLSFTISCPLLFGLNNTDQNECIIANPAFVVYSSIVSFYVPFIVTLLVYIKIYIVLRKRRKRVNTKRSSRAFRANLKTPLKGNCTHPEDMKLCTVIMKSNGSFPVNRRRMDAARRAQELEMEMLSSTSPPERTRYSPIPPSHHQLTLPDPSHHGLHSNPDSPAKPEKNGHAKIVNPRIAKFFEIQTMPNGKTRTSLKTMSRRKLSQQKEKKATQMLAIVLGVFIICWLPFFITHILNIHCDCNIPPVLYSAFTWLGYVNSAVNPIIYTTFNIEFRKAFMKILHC

| Structure (SMILES) | Ki [1] [nM] | Ki [2] [nM] |
| --- | --- | --- |
| CC[C@@H](CO)NC(=O)[C@@H]1C=C2c3cccc4c3c(cn4C)C[C@H]2N(C)C1 | 116 | 217 |
| OCCN1CCN(CCCN2c3ccccc3Sc3ccc(C(F)(F)F)cc32)CC1 [2-[4-[3-[2-(trifluoromethyl)phenothiazin-10-yl]propyl]piperazin-1-yl]ethanol;hydrochloride] |  | 11.2 |
| O=C(c1ccc(F)cc1)C1CCN(CCn2c(=O)[nH]c3ccccc3c2=O)CC1 [3-(2-{4-[(4-fluorophenyl)carbonyl]piperidin-1-yl}ethyl)-1,2,3,4-tetrahydroquinazoline-2,4-dione] | 397 | 1010 |
| CN1C2CC(OC(=O)C(CO)c3ccccc3)CC1C1OC12 (stereo unspecified) [3-hydroxy-2-phenyl-propionic acid 9-methyl-3-oxa-9-aza-tricyclo[3.3.1.0*2,4*]non-7-yl ester] | > 10000 | > 10000 |
| OCCN1CCN(CCCN2c3ccccc3Sc3ccc(Cl)cc32)CC1 [4-[3-(2-chlorophenothiazin-10-yl)propyl]-1-piperazineethanol] | 1.3 | 29.9 |
| NCCCC(=O)O [4-amino-n-[2,3-3H]butyric acid] | > 10000 | > 10000 |
| OCCC1CCN(CCC=C2c3ccc(F)cc3Sc3ccc(C(F)(F)F)cc32)CC1 [CAS_60197-32-2] | 1 | 2.9 |
| N[C@@H](CCC(=O)O)C(=O)O [L-Glutamic acid] | > 10000 | > 10000 |
| NCC(O)c1ccc(O)c(O)c1 (stereo not drawn) [Noradrenaline,(+)] | > 10000 | > 10000 |
| NCCc1c[nH]cn1 [[3H]histamine] | > 10000 | > 10000 |
| OCCC1CCN(CC/C=C2\c3ccc(F)cc3Sc3ccc(C(F)(F)F)cc32)CC1 [trans piflutixol-(E)] | 73 | 95 |
